Assays:
Assay in all cases: combination Emax (second highest fraction inhibited in the dose matrix, 72 h); higher = more inhibition; extreme values may be limits of the assay
CHP-212 (Neuroblastoma) = tested on: CHP-212 (Neuroblastoma)
How it was run: (§1)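 Bliss excess equals the observed combination effect minus the expected value EA + EB − EA·EB, where EA and EB are the effects of each agent alone. Combination Emax is the second-highest inhibition within the matrix. Inhibition was scaled from CellTiter-Glo 2.0 luminescence, with 0 set by vehicle wells and 1 by blank wells, after 72 hours of two-drug dosing of cells plated in 1536-well plates.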

[1] = tested on: DND-41 (T-Lymphoblastic Leukemia)
How it was run: as §1

ES1 (Ewing's Sarcoma) = tested on: ES1 (Ewing's Sarcoma)
How it was run: as §1

[2] = tested on: GR-ST (B-Lymphoblastic Leukemia)
How it was run: as §1

[3] = tested on: HDQ-P1 (Breast Carcinoma)
How it was run: as §1

[4] = tested on: K-562 (Chronic Myelogenous Leukemia)
How it was run: as §1

[5] = tested on: KARPAS-45 (T-Lymphoblastic Leukemia)
How it was run: as §1

[6] = tested on: KCL-22 (Chronic Myelogenous Leukemia)
How it was run: as §1

[7] = tested on: L-540 (Hodgkin's Lymphoma)
How it was run: as §1

[8] = tested on: MFM-223 (Breast Carcinoma)
How it was run: as §1

[9] = tested on: MKN28 (Gastric Carcinoma)
How it was run: as §1

[10] = tested on: MS751 (Cervical Carcinoma)
How it was run: as §1

[11] = tested on: NCI-H1792 (Lung Adenocarcinoma)
How it was run: as §1

NCI-H2818 (Mesothelioma) = tested on: NCI-H2818 (Mesothelioma)
How it was run: as §1

[12] = tested on: NCI-H847 (Small Cell Lung Carcinoma)
How it was run: as §1

[13] = tested on: PANC-08-13 (Pancreatic Carcinoma)
How it was run: as §1

[14] = tested on: SR (Other Blood Carcinomas)
How it was run: as §1

[15] = tested on: SU-DHL-8 (B-Cell Non-Hodgkin's Lymphoma)
How it was run: as §1

TC-71 (Ewing's Sarcoma) = tested on: TC-71 (Ewing's Sarcoma)
How it was run: as §1

WM-115 (Melanoma) = tested on: WM-115 (Melanoma)
How it was run: as §1

SMILES | combination Emax (CHP-212 (Neuroblastoma)) | combination Emax [1] | combination Emax (ES1 (Ewing's Sarcoma)) | combination Emax [2] | combination Emax [3] | combination Emax [4] | combination Emax [5] | combination Emax [6] | combination Emax [7] | combination Emax [8] | combination Emax [9] | combination Emax [10] | combination Emax [11] | combination Emax (NCI-H2818 (Mesothelioma)) | combination Emax [12] | combination Emax [13] | combination Emax [14] | combination Emax [15] | combination Emax (TC-71 (Ewing's Sarcoma)) | combination Emax (WM-115 (Melanoma))
C=CCn1c(=O)c2cnc(Nc3ccc(N4CCN(C)CC4)cc3)nc2n1-c1cccc(C(C)(C)O)n1 [AZD1775] + C[C@@H]1COCCN1C2=NC(=NC(=C2)C3(CC3)[S@](=N)(=O)C)C4=C5C=CNC5=NC=C4 [AZD6738] (first compound max 1 µM, partner max 10 µM) | 0.823 | 0.929 | 0.948 | 0.78 | 0.76 | 0.934 | 1 | 1 | 0.941 | 0.897 | 0.695 | 0.428 | 0.866 | 0.475 | 1 | 0.373 | 1 | 0.903 | 0.941 | 0.595
C=CCn1c(=O)c2cnc(Nc3ccc(N4CCN(C)CC4)cc3)nc2n1-c1cccc(C(C)(C)O)n1 [AZD1775] + O=C(c1cc(Cc2n[nH]c(=O)c3ccccc23)ccc1F)N1CCN(C(=O)C2CC2)CC1 [Olaparib] (first compound max 1 µM, partner max 10 µM) | 0.831 | 0.878 | 0.838 | 0.806 | 0.517 | 0.845 | 0.847 | 0.882 | 0.946 | 0.56 | 0.573 | 0.215 | 0.707 | 0.415 | 1 | 0.329 | 0.995 | 0.877 | 0.583 | 0.259
CCN(CCO)CCCOc1ccc2c(Nc3cc(CC(=O)Nc4cccc(F)c4)[nH]n3)ncnc2c1 [AZD2811] + C=CCn1c(=O)c2cnc(Nc3ccc(N4CCN(C)CC4)cc3)nc2n1-c1cccc(C(C)(C)O)n1 [AZD1775] (first compound max 1 µM, partner max 1 µM) | 0.843 | 0.902 | 0.779 | 0.789 | 0.522 | 0.811 | 0.936 | 0.932 | 0.916 | 0.56 | 0.5 | 0.599 | 0.608 | 0.276 | 1 | 0.268 | 0.991 | 0.929 | 0.857 | 0.193

From the supplement of paper PMC11061612
